Results reported in patent publication US20080220100A1, “Fermented panax notoginseng solution with anti-cancer effects and manufacture method thereof” (MICROBIO COMPANY LTD., TAIWAN, priority 2007, published 2008).

Tests used:
[1] = test system: Hep 3B/T2 cancer cells; test: SCID mice injected with Hep 3B/T2 cancer cells, fed fermented product for 35 days; assay type: in vivo; conditions: positive control group
Description: SCID mice with 18 to 22 g body weight were classified into 5 groups and 10 mice per group. […] The tumor size of the SCID mice was measured every 3 to 4 days, and the weight of the heart, liver, spleen, lung, and kidney of the SCID mice was measured when the experiment was finished.

[2] = Anti-oxidation capacity relative to vitamin E; conditions: vitamin E defined to 100; medium with increasing share of black bean powder
Excerpt: The same procedure carried out in Example 2 was repeated except that the content of the Panax notoginseng medium was changed. The content of the Panax notoginseng medium included 4 types: ¼ Panax notoginseng powder and ¾ black powder, ½ Panax notoginseng powder and 1/2 black powder, ¾ Panax notoginseng powder and ¼ black powder, and all Panax notoginseng powder.

Molecule	Heart weight [1]	Kidney weight [1]	Liver weight [1]	Lung weight [1]	Spleen weight [1]	Tumor weight [1]	anti-oxidation capacity [2]
O=c1[nH]cc(F)c(=O)[nH]1 [5-FU, fluorouracil]	143.2 ± 14.6 mg	328.2 ± 26.2 mg	1171.3 ± 103.0 mg	215.8 ± 23 mg	118.7 ± 35.6 mg	376.1 ± 232.9 mg	–
vitamin E	–	–	–	–	–	–	100
